Results on 6 compounds are retold here after ChEMBL document CHEMBL3244073, “1,2,4-Triazole amino nucleosides. 1-beta-D-3'-Amino-3'-deoxyribofuranosyl-1,2,4-triazole-3-carboxamide and related nucleosides” (1977).

Active and inactive are the calls of the source. No cut-off for these calls is given here.

The experiment deals with Vaccinia virus. Nature of the experiment: Antiviral activity against Vaccinia virus Lederle Chorioallantoic assessed as inhibition of virus-induced cytopathogenicity. Format: functional, organism-based. Particulars: Orthopoxvirus vaccinia. In general terms: Damage to the host cells serves as the signal in cytopathic effect assays.
Regarding `N/N=C(/N)c1ncn([C@@H]2O[C@H](CO)[C@@H](N)[C@H]2O)n1`, the result was inactive. On to `N[C@H]1[C@@H](O)[C@H](n2cnc(C(=O)NO)n2)O[C@@H]1CO`, for which the outcome was inactive. `N/C(=N/O)c1ncn([C@@H]2O[C@H](CO)[C@@H](N)[C@H]2O)n1`: the outcome was inactive.

In the case of `NC(=O)c1ncnn1[C@@H]1O[C@H](CO)[C@@H](N)[C@H]1O`, the outcome was inactive. `NC(=O)c1ncn([C@@H]2O[C@H](CO)[C@@H](N)[C@H]2O)n1`: the result was inactive.

Take `NNC(=O)c1ncn([C@@H]2O[C@H](CO)[C@@H](N)[C@H]2O)n1`: the result was inactive.
